# According to patent US5232932A, “Method for treatment of neurodegenerative diseases” (R. J. Reynolds Tobacco Company, priority 1992, dated 1993):
# Tests used:
# [1] = biological target: high affinity nicotinic receptors; experiment: Inhibition of L-[3H]nicotine binding to mouse brain membrane preparations; set-up: species or system Mice (DBA strain); details: mouse brain membranes, 2 hr at 4° C., Ki calculated from IC50 by method of Cheng et al.
# Experimental: Mice (DBA strain) were maintained on a 12 hour light/dark cycle and were allowed free access to water and food supplied by Wayne Lab Blox, Madison, WI. Animals used in the present studies were 60 to 90 days of age and weighed 20 to 25 g. Brain membrane preparations were obtained from pooled brain tissue of both males and females.
# Mice were killed by cervical dislocation. Brains were removed and placed on an ice-cold platform. The cerebellum was removed and the remaining tissue was placed in 10 volumes (weight:volume) of ice-cold buffer (Krebs-RingersHEPES:NaCl, 118 mM; KCl, 4.8 mM; CaCl2, 2.5 mM; MgSO4, 1.2 mM; HEPES, 20 mM; pH to 7.5 with NaOH) and homogenized with a glass-Teflon tissue grinder. The resulting homogenate was centrifuged at 18000×g for 20 min. and the resulting pellet was resuspended in 20 volumes of water. […] Protein was determined by the method of Lowry, et al., J. Biol. Chem., Vol. 193, pp. 265-275 (1951), using bovine serum albumin as the standard.
# The binding of L-[^3 H]nicotine was measured using a modification of the method of Romano, et al., Science, Vol. 210, pp. 647-650 (1980) as described previously by Marks, et al., Mol. Pharmacol., Vol. 30, pp. 427-436 (1986). The binding of L-[^3 H]nicotine was measured using a 2 hr. incubation at 4° C. […] Nonspecific binding was determined by inclusion of 10 μM nonradioactive nicotine in the incubations. […]
# [2] = tested on: synaptosomes from the striatal area of rat brain; experiment: [3H]-dopamine release from rat striatal synaptosomes; type: biochemical, Sprague-Dawley rats; details: 0.2 ml of 10 μM solution of ligand; relative to equal concentration of (S)-(-)-nicotine
# Experimental: Dopamine release was measured by preparing synaptosomes from the striatal area of rat brain obtained from Sprague-Dawley rats generally according to the procedures set forth by Nagy, et al., J. Neurochem., Vol. 43, pp. 1114-1123 (1984). Striata from 4 rats were homogenized in 2 ml of 0.32M sucrose buffered with 5 mM HEPES (pH 7.5), using a glass-teflon tissue grinder. The homogenate was diluted to 5 ml with additional homogenization solution and centrifuged at 1000×g for 10 min. This procedure was repeated on the new pellet and the resulting supernatant was centrifuged at 12,000×g for 20 min. […] Using this method, 30 to 90 percent of the dopamine was taken up into the synaptosomes, as determined by scintillation counting following filtration through glass fiber filters soaked with 0.5 percent polyethyleneimine. […] After the addition of a 0.2 ml of a 10 μM solution of ligand, the perfusate was collected into scintillation vials at 1 min. intervals and the dopamine released was quantified by scintillation counting. Peaks of radioactivity released above background were summed and the average basal release during that time was subtracted from the total. Release was expressed as a percentage of release obtained with an equal concentration of (S)-(-)-nicotine.
structure (smiles),measurement,setting,value
CNCCCC(=O)c1cccnc1 [pseudooxynicotine],Ki,[1],1700 nM
same,"Dopamine Release, percent release relative to (S)-(-)-nicotine",[2],45%
